Tests used:
Type in all cases: cell-based
[1] = target: T1, EGFR WT (Ba/F3 cells) (Homo sapiens, UniProt P00533); assay: Inhibitor activity on EGFR-dependent cell growth (CellTiter-Glo, 72 h), Ba/F3 EGFR WT; conditions: read-out: BaF3 WT IC50
T1 construct: expressed in transfected cells; host or cells: Ba/F3 (murine pro-B cells), retroviral transduction, puromycin selection, maintained with EGF
How it was run: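 This growth assay used Ba/F3 cells that depend on wild-type EGFR and are kept in EGF without IL3. Compounds were made up as 10 mM DMSO stocks and diluted 3-fold over 10 points. 120 nL went onto 600 cells/well. After 72 hours, 40 μL CellTiter-Glo was added and luminescence read on EnVision after 30 min.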

[2] = target: T2, EGFR exon 20 ASV Ins V769_D770 (Ba/F3 cells) (Homo sapiens, UniProt P00533, INS769ASV); assay: Inhibitor activity on EGFR-dependent cell growth (CellTiter-Glo, 72 h), Ba/F3 EGFR exon 20 ASV Ins; conditions: read-out: BaF3 ASV IC50
T2 construct: expressed in transfected cells; host or cells: Ba/F3 (murine pro-B cells), retroviral transduction, puromycin selection, IL3-independent pool
How it was run: (§1)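 IC50s derive from a sigmoidal dose–response fit of CellTiter-Glo signal. The signal was normalised between […]-treated cells and cell-free medium. Ba/F3 mutant-EGFR cells, seeded at 400–800/well depending on the line, had 72 h of exposure to a 10-point, 3-fold compound series.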

[3] = target: T3, EGFR exon 20 NPG Ins D770_N771 (Ba/F3 cells) (Homo sapiens, UniProt P00533, INS770NPG); assay: Inhibitor activity on EGFR-dependent cell growth (CellTiter-Glo, 72 h), Ba/F3 EGFR exon 20 NPG Ins; conditions: read-out: BaF3 NPG IC50
T3 construct: expressed in transfected cells; host or cells: Ba/F3 (murine pro-B cells), retroviral transduction, puromycin selection, IL3-independent pool
How it was run: as §1

[4] = target: T4, EGFR exon 20 SVD Ins D770_N771 (Ba/F3 cells) (Homo sapiens, UniProt P00533, INS770SVD); assay: Inhibitor activity on EGFR-dependent cell growth (CellTiter-Glo, 72 h), Ba/F3 EGFR exon 20 SVD Ins; conditions: read-out: BaF3 SVD IC50
T4 construct: expressed in transfected cells; host or cells: Ba/F3 (murine pro-B cells), retroviral transduction, puromycin selection, IL3-independent pool
How it was run: as §1

[5] = target: EGFR (CUTO14 cells) (Homo sapiens, UniProt P00533); assay: Inhibitor activity on EGFR phosphorylation (pEGFR AlphaLISA, 2 h), CUTO14 cells
Text: Example B. Inhibitor Activity on EGFR phosphorylation (pEGFR)
EGFR mutant Ba/F3 cells were generated by transduction with retrovirus containing vectors expressing EGFR L858R, EGFR exon 19del, EGFR L858R/C797S, EGFR exon 20 NPG Ins D770_N771, EGFR exon 20 ASV Ins V769_D770, or EGFR exon 20 SVD Ins D770_N771 genes along with a puromycin selection marker. Transduced cells are selected with puromycin for 7 days and are then be transferred into culture media without Interleukin 3 (IL3). Surviving cells are confirmed to express EGFR by Western blot and maintained as a pool. CUTO14 cells were obtained from Dr. Robert C. Doebele at the University of Colorado. The IC50 date are included in Table 6 and Table 7.
(§2) 1.1 Cells are harvested from flask into cell culture medium and the cell number counted.
1.2 Cells are diluted with culture medium to the desired density and 40 μL of cell suspension is added into each well of 384-well cell culture plate and the seeding density is 50K cells/well (Ba/F3) or 12.5K cells/well (CUTO14).
(§3) 2 Compound Preparation and Treatment
(§4) 2.1 Test compounds are dissolved to 10 mM in a DMSO stock solution. 45 μL of stock solution is transferred to a 384 polypropylene plate (pp-plate). Perform 3-fold, 10-point dilution via transferring 15 μL compound into 30 μL DMSO using a TECAN (EVO200) liquid handler.
(§5) 2.2 Spin plates at room temperature at 1,000 RPM for 1 minute.
2.3 Transfer 5 nL of diluted compound from compound source plate into the cell plate.
2.4 After compound treatment for 2 hours, perform pEGFR detection by AlphaLISA for compound treatment plates as described in “Detection” section.
3 Detection by pEGFR AlphaLISA (Perkin-Elmer)
3.1 Plates are removed from incubators and equilibrated at room temperature for 10 minutes, and media was removed
3.2 10 μL of lysis buffer is added and plates shaken at 600 rpm for 1 hr.
3.3 Prepare acceptor mix just before use and dispense 5 μL of acceptor mix to all the wells. Shake 350 rpm for Ihr in the dark
3.4 Prepare donor mix under low light conditions prior to use. Dispense 5 μL of donor mix to all the wells. Mix well on the shaker, seal and wrap in aluminum foil and incubate 1.5 hrs at room temperature in the dark
3.5 Transfer 18.5 μL mixture to OptiPlate 384, and read using an Envision. The IC50 date were included in Table 6 and Table 7.

[6] = target: T2, EGFR exon 20 ASV Ins V769_D770 (Ba/F3 cells); assay: Inhibitor activity on EGFR phosphorylation (pEGFR AlphaLISA, 2 h), Ba/F3 EGFR exon 20 ASV Ins; conditions: EGFR phosphorylation, AlphaLISA, 2 hours; read-out: ASV IC50 (pEGFR)
How it was run: (§6)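 Ba/F3 cells made IL3-independent by retroviral EGFR mutant expression (puromycin-selected, pooled) and CUTO14 cells were seeded at 50K or 12.5K cells/well, respectively. They were treated 2 h with a 3-fold, 10-point compound series, lysed, and phospho-EGFR was read by AlphaLISA to give IC50.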

[7] = target: T3, EGFR exon 20 NPG Ins D770_N771 (Ba/F3 cells); assay: Inhibitor activity on EGFR phosphorylation (pEGFR AlphaLISA, 2 h), Ba/F3 EGFR exon 20 NPG Ins
How it was run: as §6

[8] = target: T5, EGFR exon 20 FQEA Ins A763_V764 (Ba/F3 cells) (Homo sapiens, UniProt P00533, INS763FQEA); assay: Inhibitor activity on EGFR-dependent cell growth (CellTiter-Glo, 72 h), Ba/F3 EGFR exon 20 FQEA Ins; conditions: read-out: BaF3 FQEA IC50
T5 construct: expressed in transfected cells; host or cells: Ba/F3 (murine pro-B cells), retroviral transduction, puromycin selection, IL3-independent pool
How it was run: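 Ba/F3 cells engineered with each EGFR variant were plated (400, 600 or 800 per well for L858R, L858R/C797S, and exon 19del/FQEA). They were exposed for 72 hours to compound serially diluted from a 10 mM DMSO stock. Remaining viable cells were quantified by CellTiter-Glo, and IC50 was curve-fitted.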

[9] = target: EGFR exon 19del (Ba/F3 cells) (Homo sapiens, UniProt P00533); assay: Inhibitor activity on EGFR-dependent cell growth (CellTiter-Glo, 72 h), Ba/F3 EGFR exon 19del; conditions: Ba/F3 EGFR exon 19del cell growth, read-out: BaF3 Del19 IC50
Text: (§7) Example A. Inhibitor Activity on EGFR-Dependent Cell Growth
(§8) Cell lines are generated by transducing Ba/F3 cells with retroviruses containing vectors with EGFR WT, EGFR L858R, EGFR exon 19del, EGFR L858R/C797S, EGFR exon 20 NPG Ins D770_N771, EGFR exon 20 ASV Ins V769_D770, EGFR exon 20 SVD Ins D770_N771, or EGFR exon 20 FQEA Ins A763_V764 genes and a puromycin selection marker. Transduced cells are selected with puromycin for 7 days and are then be transferred into culture media without Interleukin 3 (IL3). EGFR WT cells are maintained with supplemental EGF. Surviving cells are confirmed to express EGFR by Western blot and maintained as a pool. The IC50 date were included in Table 6 and Table 7.
as §2
(§9) 1.2 Cells are diluted with culture medium to the desired density and 40 μL of cell suspension is added into each well of 384-well cell culture plate and the seeding density is 800 (FQEA, exon 19del), 600 (WT, NPG, L858R/C797S), or 400 (ASV, SVD, L858R) cells/well.
as §3, §4, §5
(§10) 2.3 Transfer 120 nL of diluted compound from compound source plate into the cell plate.
(§11) 2.4 After compound treatment for 72 hours, perform CTG detection for compound treatment plates as described in “Detection” section.
(§12) 3.1 Plates are removed from incubators and equilibrated at room temperature for 15 minutes.
(§13) 3.2 Thaw the CellTiter Glo reagents and allow to equilibrate to room temperature before the experiment.
(§14) 3.3 Add 40 μL of CellTiter-Glo reagent into each well (at 1:1 to culture medium). Then place the plates at room temperature for 30 min followed by reading on EnVision.
(§15) 4.1 Inhibition activity is calculated following the formula below:
(§16) % Inhibition=100×(LumHC−LumSample)/(LumHC−LumLC) • where HC is obtained from cells treated with 0.1% DMSO only; and LC is obtained from culture medium only.
(§17) 4.2 2. Calculate the IC50 by fitting the Curve using Xlfit (v5.3.1.3), equation 201.
(§18) Y=Bottom+(Top−Bottom)/(1+10^((Log IC50−X)*HillSlope))

[10] = target: T6, EGFR L858R (Ba/F3 cells) (Homo sapiens, UniProt P00533, L858R); assay: Inhibitor activity on EGFR-dependent cell growth (CellTiter-Glo, 72 h), Ba/F3 EGFR L858R; conditions: read-out: BaF3 L858R IC50
T6 construct: expressed in transfected cells; host or cells: Ba/F3 (murine pro-B cells), retroviral transduction, puromycin selection, IL3-independent pool
Text: as §7, §8, §2, §9, §3, §4, §5, §10, §11, §12, §13, §14, §15, §16, §17, §18

T3 sequence (P00533 with tags, fused parts or gaps INS770NPG): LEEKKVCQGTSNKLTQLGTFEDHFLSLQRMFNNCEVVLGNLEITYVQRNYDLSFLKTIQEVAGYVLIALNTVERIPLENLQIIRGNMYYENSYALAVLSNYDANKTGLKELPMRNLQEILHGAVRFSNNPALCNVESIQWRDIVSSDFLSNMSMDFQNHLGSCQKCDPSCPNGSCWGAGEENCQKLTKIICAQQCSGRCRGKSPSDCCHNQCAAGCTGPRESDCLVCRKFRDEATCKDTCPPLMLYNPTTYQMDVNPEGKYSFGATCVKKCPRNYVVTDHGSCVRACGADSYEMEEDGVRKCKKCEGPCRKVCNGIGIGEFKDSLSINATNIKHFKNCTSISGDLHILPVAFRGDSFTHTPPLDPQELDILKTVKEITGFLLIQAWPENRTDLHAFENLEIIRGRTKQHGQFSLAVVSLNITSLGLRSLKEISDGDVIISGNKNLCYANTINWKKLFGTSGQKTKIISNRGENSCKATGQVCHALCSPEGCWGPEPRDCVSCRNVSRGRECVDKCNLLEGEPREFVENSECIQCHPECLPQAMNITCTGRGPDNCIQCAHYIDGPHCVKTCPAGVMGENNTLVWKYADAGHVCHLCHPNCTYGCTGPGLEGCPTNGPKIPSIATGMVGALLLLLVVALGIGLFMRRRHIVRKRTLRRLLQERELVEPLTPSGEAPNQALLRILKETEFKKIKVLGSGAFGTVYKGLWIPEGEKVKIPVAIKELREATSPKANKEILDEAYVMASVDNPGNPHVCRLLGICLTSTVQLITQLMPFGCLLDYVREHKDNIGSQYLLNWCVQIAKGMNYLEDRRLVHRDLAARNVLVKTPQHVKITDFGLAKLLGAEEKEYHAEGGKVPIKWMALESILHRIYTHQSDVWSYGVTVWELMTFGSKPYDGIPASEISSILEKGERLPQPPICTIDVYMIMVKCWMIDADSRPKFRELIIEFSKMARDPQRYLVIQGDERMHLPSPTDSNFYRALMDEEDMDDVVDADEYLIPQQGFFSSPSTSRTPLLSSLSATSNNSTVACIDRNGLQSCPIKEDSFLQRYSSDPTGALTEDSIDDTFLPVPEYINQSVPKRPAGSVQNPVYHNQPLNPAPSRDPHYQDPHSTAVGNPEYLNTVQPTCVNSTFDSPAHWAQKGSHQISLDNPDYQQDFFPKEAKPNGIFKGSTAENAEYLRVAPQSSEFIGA
Sequence of EGFR (CUTO14 cells) (P00533 with tags, fused parts or gaps DUP767-769): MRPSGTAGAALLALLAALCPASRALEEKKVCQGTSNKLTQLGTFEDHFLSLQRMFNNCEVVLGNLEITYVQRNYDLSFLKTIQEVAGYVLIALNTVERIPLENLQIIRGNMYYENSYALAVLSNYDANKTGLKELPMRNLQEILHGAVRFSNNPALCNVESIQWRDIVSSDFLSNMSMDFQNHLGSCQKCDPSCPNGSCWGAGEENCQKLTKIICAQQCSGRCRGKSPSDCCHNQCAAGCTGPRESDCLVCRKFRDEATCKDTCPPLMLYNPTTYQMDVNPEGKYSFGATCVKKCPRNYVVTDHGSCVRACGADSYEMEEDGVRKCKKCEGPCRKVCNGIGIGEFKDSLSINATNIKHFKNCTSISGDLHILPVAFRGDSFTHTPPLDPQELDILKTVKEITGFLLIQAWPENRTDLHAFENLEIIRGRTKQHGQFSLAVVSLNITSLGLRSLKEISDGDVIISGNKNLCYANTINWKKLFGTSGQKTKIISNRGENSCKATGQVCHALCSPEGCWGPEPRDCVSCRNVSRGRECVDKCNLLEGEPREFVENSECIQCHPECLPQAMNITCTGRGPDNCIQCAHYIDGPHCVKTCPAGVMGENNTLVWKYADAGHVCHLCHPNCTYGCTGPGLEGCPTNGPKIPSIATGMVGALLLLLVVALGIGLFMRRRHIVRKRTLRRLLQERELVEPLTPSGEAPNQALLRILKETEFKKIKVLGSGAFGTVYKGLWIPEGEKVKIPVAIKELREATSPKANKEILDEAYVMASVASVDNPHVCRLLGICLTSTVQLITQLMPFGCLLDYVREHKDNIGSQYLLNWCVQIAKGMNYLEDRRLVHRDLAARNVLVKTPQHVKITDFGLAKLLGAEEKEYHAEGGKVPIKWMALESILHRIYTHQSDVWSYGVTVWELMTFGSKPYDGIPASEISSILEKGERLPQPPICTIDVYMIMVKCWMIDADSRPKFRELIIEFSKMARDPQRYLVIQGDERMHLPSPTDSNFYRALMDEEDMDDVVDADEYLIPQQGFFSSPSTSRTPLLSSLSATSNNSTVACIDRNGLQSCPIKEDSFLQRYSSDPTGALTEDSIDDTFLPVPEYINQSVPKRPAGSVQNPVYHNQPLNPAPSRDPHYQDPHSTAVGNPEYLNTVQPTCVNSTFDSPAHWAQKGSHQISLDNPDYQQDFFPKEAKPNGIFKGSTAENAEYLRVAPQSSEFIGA
T4 sequence (P00533 with tags, fused parts or gaps INS770SVD): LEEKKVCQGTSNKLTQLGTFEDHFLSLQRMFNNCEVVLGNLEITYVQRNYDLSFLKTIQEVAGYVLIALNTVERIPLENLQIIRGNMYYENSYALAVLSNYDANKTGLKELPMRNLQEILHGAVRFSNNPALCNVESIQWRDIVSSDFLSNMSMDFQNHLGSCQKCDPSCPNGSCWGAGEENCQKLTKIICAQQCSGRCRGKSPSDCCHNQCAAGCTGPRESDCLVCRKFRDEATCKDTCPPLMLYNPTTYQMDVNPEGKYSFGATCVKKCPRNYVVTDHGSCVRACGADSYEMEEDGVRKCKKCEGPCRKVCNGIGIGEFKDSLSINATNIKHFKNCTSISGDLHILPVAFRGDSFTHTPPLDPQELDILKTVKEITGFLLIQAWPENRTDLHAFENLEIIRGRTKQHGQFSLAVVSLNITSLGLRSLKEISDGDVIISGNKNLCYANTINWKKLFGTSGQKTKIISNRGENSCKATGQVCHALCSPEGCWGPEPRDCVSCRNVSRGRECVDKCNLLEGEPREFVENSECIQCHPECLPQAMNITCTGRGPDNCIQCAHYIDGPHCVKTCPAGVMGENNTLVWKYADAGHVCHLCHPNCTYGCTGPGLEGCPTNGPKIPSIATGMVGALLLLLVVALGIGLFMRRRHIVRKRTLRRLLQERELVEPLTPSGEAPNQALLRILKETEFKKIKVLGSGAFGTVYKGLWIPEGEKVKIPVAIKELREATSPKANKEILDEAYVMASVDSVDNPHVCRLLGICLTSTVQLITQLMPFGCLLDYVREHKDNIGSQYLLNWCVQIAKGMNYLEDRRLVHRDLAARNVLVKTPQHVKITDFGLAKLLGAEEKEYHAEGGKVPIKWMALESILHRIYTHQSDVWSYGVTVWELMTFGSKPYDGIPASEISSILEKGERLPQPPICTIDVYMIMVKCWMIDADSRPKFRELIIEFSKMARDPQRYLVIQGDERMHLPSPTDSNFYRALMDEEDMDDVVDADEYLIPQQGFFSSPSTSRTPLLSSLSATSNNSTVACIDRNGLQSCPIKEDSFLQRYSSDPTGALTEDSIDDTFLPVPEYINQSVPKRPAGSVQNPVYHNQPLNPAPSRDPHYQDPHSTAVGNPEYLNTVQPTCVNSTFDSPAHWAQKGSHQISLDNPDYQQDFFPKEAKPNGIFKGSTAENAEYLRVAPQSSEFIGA
T2 sequence (P00533 with tags, fused parts or gaps INS769ASV): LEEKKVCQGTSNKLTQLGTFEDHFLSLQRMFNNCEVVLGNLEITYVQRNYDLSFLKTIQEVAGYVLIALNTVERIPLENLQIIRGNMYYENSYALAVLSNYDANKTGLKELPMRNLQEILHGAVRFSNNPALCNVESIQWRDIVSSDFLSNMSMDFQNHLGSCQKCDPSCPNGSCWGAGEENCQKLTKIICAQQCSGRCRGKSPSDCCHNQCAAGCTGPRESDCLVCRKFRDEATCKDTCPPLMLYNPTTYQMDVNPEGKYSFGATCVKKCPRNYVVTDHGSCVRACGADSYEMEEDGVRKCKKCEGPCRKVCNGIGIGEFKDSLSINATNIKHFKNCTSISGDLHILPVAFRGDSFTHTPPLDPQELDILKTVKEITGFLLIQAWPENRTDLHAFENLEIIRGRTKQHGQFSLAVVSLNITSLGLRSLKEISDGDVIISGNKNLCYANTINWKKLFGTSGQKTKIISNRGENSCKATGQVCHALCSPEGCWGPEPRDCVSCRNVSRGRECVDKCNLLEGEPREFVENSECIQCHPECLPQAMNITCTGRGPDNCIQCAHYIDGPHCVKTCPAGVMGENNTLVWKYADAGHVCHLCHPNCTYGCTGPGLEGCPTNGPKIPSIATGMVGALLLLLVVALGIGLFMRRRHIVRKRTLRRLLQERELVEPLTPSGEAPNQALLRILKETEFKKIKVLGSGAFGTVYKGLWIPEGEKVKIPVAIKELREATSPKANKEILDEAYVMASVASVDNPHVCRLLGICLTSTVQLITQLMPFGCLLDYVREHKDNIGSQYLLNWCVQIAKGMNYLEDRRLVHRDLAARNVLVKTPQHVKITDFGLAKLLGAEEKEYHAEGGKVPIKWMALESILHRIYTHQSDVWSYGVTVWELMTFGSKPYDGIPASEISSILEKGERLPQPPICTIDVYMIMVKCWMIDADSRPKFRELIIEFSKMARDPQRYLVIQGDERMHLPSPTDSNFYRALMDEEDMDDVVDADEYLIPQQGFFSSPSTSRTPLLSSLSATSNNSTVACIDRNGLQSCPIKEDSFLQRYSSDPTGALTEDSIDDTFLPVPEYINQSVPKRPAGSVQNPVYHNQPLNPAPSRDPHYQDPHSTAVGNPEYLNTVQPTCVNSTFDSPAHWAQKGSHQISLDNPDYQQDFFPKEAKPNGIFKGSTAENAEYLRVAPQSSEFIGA

IC50 [1] [nM] | IC50 [2] [nM] | IC50 [3] [nM] | IC50 [4] [nM] | IC50 [5] [nM] | IC50 [6] [nM] | IC50 [7] [nM] | IC50 [8] [nM] | IC50 [9] [nM] | IC50 [10] [nM] | SMILES
> 1000 | < 100 | < 100 | < 100 | < 100 | – | – | – | – | – | COc1c(Cl)cccc1Nc1c(-c2ccncc2)[nH]c2c1C(=O)NC[C@H]2C[C@@H]1CN(C)CCO1 [Compound 645, (7R)-3-[(3-chloro-2-methoxyphenyl)amino]-7-{[(2R)-4-methylmorpholin-2-yl]methyl}-2-(pyridin-4-yl)-1H,5H,6H,7H-pyrrolo[3,2-c]pyridin-4-one]
100 to 1000 | < 100 | 100 to 1000 | < 100 | – | < 100 | < 100 | < 100 | < 100 | < 100 | COc1c(Cl)cccc1Nc1c(-c2ccnc3[nH]cnc23)[nH]c2c1C(=O)NCC2 [compound 290]
100 to 1000 | < 100 | < 100 | < 100 | < 100 | – | – | – | – | – | COc1c(Cl)cccc1Nc1c(-c2ccnc(Nc3cnn(C)n3)n2)[nH]c2c1C(=O)NCC2 [compound 592, 3-[(3-chloro-2-methoxyphenyl)amino]-2-{2-[(2-methyl-1,2,3-triazol-4-yl)amino]pyrimidin-4-yl}-1H,5H,6H,7H-pyrrolo[3,2-c]pyridin-4-one]
100 to 1000 | < 100 | < 100 | < 100 | < 100 | – | – | – | – | – | COc1c(F)cccc1Nc1c(-c2ccnc(Nc3cnn(C)n3)n2)[nH]c2c1C(=O)NCC2 [compound 593, 3-[(3-fluoro-2-methoxyphenyl)amino]-2-{2-[(2-methyl-1,2,3-triazol-4-yl)amino]pyrimidin-4-yl}-1H,5H,6H,7H-pyrrolo[3,2-c]pyridin-4-one]
100 to 1000 | < 100 | < 100 | < 100 | < 100 | – | – | – | – | – | C=CC(=O)N1CCC2(CC1)CNC(=O)c1c2[nH]c(-c2ccncc2F)c1Nc1cc(F)cc(F)c1OC [compound 610]
< 100 | < 100 | < 100 | < 100 | – | – | – | < 100 | < 100 | < 100 | CCO[C@@H](C)c1ccc2nccc(-c3[nH]c4c(c3Nc3cccc(Cl)c3OC)C(=O)NCC4)c2n1 [compound 754, 3-[(3-chloro-2-methoxyphenyl)amino]-2-[6-[(1S)-1-ethoxyethyl]-1,5-naphthyridin-4-yl]-1H,5H,6H,7H-pyrrolo[3,2-c]pyridin-4-one; trifluoroacetic acid]

— US20240101576A1, “HETEROCYCLIC INHIBITORS OF EGFR AND/OR HER2, FOR USE IN THE TREATMENT OF CANCER” (Scorpion Therapeutics, Inc., priority 2020, published 2024)
